Format in all cases: cell-based
For one data set, the system named is VCaP cells. The experiment in a line: Cytotoxicity assay (AlamarBlue, 72 hours). The conditions noted are these: 72 hours treatment, concentration not given. The method, then:
(§1) Compound stock solutions of 10 mM were prepared with 100% DMSO and shaken for 10-15 seconds. The compound stock solutions were centrifuged at 12000 rpm (13523 rcf.) for 5 minutes and record the turbidity or precipitation state with a photo snapshot. The compound stock solutions were resuspended by shaking for 10-15 seconds, and serially diluted with 100% DMSO solution to make the compound concentration to 1000 μM, then to 100, 10, and 1 μM, and then 10-fold diluted with medium to 100, 10, 1, 0.1 μM (final 10% DMSO/medium) to complete compound test sample preparation. Compound treatment was performed by adding 10 μL of compound test sample to cells in each well of a 96-well plate (final 1% DMSO/medium).
(§2) Cells (CWR22Rv1 cells or VCaP cells) were cultured in RPMI-1640 medium supplemented with 10% fetal bovine serum, 10,000 U/mL penicillin and 10,000 μg/mL streptomycin. Cells were cultured at 37° C. in a humidified 5% CO2 incubator.
(§3) Cells were seeded in a 96-well plate (1×10^4 cells/well). 10 μL of the above compound test sample was added to each well of the 96-well plate on next day. After 72 hours of compound treatment, 10 μL of AlamaBlue reagent was added to each of 96 wells and incubated for 4 hours. The fluorescence value at Ex/Em=560/590 nm was read with a microplate reader, and the cytotoxicity (%) was calculated.
(§4) According to the above method, the compounds prepared above were subjected to cytotoxicity test with CWR22RV1 cells and VCaP cells.

For the next data set, the system named is CWR22RV1 cells. The experiment in a line: Cytotoxicity assay (AlamarBlue, 72 hours). The note with it: 72 hours treatment, concentration not given. The method, then:
as §1, §2, §3, §4

Data set [1] relates to full-length androgen receptor. The experiment in a line: Western blot: degradation of full-length androgen receptor in CWR22RV1 cells. The note with it: overnight. How it is done: CWR22Rv1 cells were maintained in RPMI medium supplemented with 10% fetal bovine serum and 1% penicillin-streptomycin at 37° C. in a humidified environment with 5% CO2.
CWR22Rv1 (5×10^5 cells) were seeded in each well of a 6-well plate and incubated overnight. Before compound treatment, the medium in the wells was replaced with a new medium. Cells were treated with different concentrations of compound overnight. Subsequently, cells were harvested by adding cold PBS and scraping cells. Cells were lysed according to general procedures and Western blot assays were performed to assess the ability of compounds to degrade full-length androgen receptor or androgen receptor splice variant 7. The cells or cell lysates were kept on ice at all times.
The following reagents were used in this experiment. Phosphate buffered saline (PBS) (Hyclone, SH30028.02), fetal bovine serum (Hyclone, SH30084.23, Lot AC14563276), penicillin-streptomycin solution (Hyclone, SV30010), 0.5% Trypsin-EDTA (Gibco, 15400-054), CST Lysis Buffer (CST-9803), Halt™ Protease and Phosphatase Inhibitor (ThermoFisher, 78442), Coomassie (Bradford) Protein Assay (Coomassie (Bradford) protein assay) (ThermoFisher, 23200), androgen receptor antibody (Cell Siginaling, CST-5153S), GAPDH antibody (Cell Siginaling, CST-5174S), HRP-goat-anti-rabbit (Jackson Immuno Research, 111-035-003), skim milk, SuperSignal West Pico Maximum Sensitivity substrate (ThermoFisher, 34080).
The compound prepared above was analyzed for its ability to degrade full-length androgen receptor and androgen receptor splice variant 7 in CWR22RV1 cells by Western blotting according to the method shown in item B.3-2 above.

Where [2] appears, read: compound concentration 0.1 (unit not given).
The mark [3] stands for this setting: compound concentration 1 (unit not given).
Where [4] appears, read: compound concentration 10 (unit not given).

Here are results for ten molecules from patent publication US12152035B2, “Androgen receptor binding molecule and use thereof” (Industrial Technology Research Institute, priority 2020, dated 2024).

For `Cc1ncsc1-c1ccc(CNC(=O)[C@@H]2C[C@H](O)CN2C(=O)[C@@H](NC(=O)C2CCC(C(=O)N3CCC(C#Cc4ccc(C5CCN(C6=Nn7c(nnc7C(F)(F)F)CC6)CC5)cc4)CC3)CC2)C(C)(C)C)cc1` (stereo in doubt) [Compound 34, 1-(3,3-dimethyl-2-(4-(4-((4-(1-(3-(trifluoromethyl)-7,8-dihydro-[1,2,4]triazolo[4,3-b]pyridazin-6-yl)piperidin-4-yl)phenyl)ethynyl)piperidine-1-carbonyl)cyclohexane-1-carboxamido)butanoyl)-4-hydroxy-N-(4-(4-methylthiazol-5-yl)benzyl)pyrrolidine-2-carboxamide], the “Cytotoxicity, VCaP cells (cell viability %)” value in the data set with VCaP cells is on record as “+++ (<40% : +++)”. Moreover, the “Cytotoxicity, CWR22RV1 cells (cell viability %)” value with CWR22RV1 cells was “+ (60-80% : +)”.
Take `Cc1ncsc1-c1ccc(CNC(=O)[C@@H]2C[C@H](O)CN2C(=O)[C@@H](NC(=O)CCC#Cc2ccc(COc3ccc(C4CCN(C5=Nn6c(nnc6C(F)(F)F)CC5)CC4)cc3)cc2)C(C)(C)C)cc1` [Compound 2, (2S,4S)-1-((S)-3,3-dimethyl-2-(5-(4-((4-(1-(3-(trifluoromethyl)-7,8-dihydro-[1,2,4]triazolo[4,3-b]pyridazin-6-yl)piperidin-4-yl)phenoxy)methyl)phenyl)pent-4-ynamido)butanoyl)-4-hydroxy-N-(4-(4-methylthiazol-5-yl)benzyl)pyrrolidine-2-carboxamide]: the “Cytotoxicity, CWR22RV1 cells (cell viability %)” value in the data set on CWR22RV1 cells was “+ (60-80% : +)”.
Same read-out and setting: to `Cc1ncsc1-c1ccc(CNC(=O)[C@@H]2C[C@H](O)CN2C(=O)[C@@H](NC(=O)COCCCOCCNC(=O)COc2ccc(C3CCN(C4=Nn5c(nnc5C(F)(F)F)CC4)CC3)cc2)C(C)(C)C)cc1` [Compound 3, (2S,4S)-1-((S)-2-tert-butyl-4,14-dioxo-15-(4-(1-(3-(trifluoromethyl)-7,8-dihydro-[1,2,4]triazolo[4,3-b]pyridazin-6-yl)piperidin-4-yl)phenoxy)-6,10-dioxa-3,13-diazapentadecane)-4-hydroxy-N-(4-(4-methylthiazol-5-yl)benzyl)pyrrolidine-2-carboxamide] belongs “++ (40-60% : ++)”; to `Cc1ncsc1-c1ccc(CNC(=O)[C@@H]2C[C@H](O)CN2C(=O)[C@@H](NC(=O)CCOCCOCCN2CCN(c3ccc(C#Cc4ccc(C5CCN(C6=Nn7c(nnc7C(F)(F)F)CC6)CC5)cc4)cn3)CC2)C(C)(C)C)cc1` [Compound 4, (2S,4S)-1-((S)-3,3-dimethyl-2-(3-(2-(2-(4-(5-((4-(1-(3-(trifluoromethyl)-7,8-dihydro-[1,2,4]triazolo[4,3-b]pyridazin-6-yl)piperidin-4-yl)phenyl)ethynyl)pyridin-2-yl)piperazin-1-yl)ethoxy)ethoxy)propanamido)butanoyl)-4-hydroxy-N-(4-(4-methylthiazol-5-yl)benzyl)pyrrolidine-2-carboxamide], “+ (60-80% : +)”.
The same measure, in the same setting: to `Cc1cc([C@H](C(=O)N2C[C@H](O)C[C@H]2C(=O)N[C@@H](CC(=O)NCCOCCCCOc2ccc(C3CCN(C4=Nn5c(nnc5C(F)(F)F)CC4)CC3)cc2)c2ccc(-c3scnc3C)cc2)C(C)C)on1` [Compound 6, (2S,4R)-4-hydroxy-1-((R)-3-methyl-2-(3-methylisoxazol-5-yl)butanoyl)-N—((S)-1-(4-(4-methylthiazol-5-yl)phenyl)-3-oxo-3-(2-(4-(4-(1-(3-(trifluoromethyl)-7,8-dihydro-[1,2,4]triazolo[4,3-b]pyridazin-6-yl)piperidin-4-yl)phenoxy)butoxy)ethylamino)propyl)pyrrolidine-2-carboxamide] belongs “− (<80% : −)”.
`Cc1ncsc1-c1ccc(CNC(=O)[C@@H]2C[C@H](O)CN2C(=O)C(NC(=O)CC2O[C@H](CNC(=O)COc3ccc(C4CCN(C5=Nn6c(nnc6C(F)(F)F)CC5)CC4)cc3)[C@@H](O)[C@H]2O)C(C)(C)C)cc1` (stereo partly drawn) [Compound 7, 1-(2-(2-((3R,4S,5R)-3,4-dihydroxy-5-((2-(4-(1-(3-(trifluoromethyl)-7,8-dihydro-[1,2,4]triazolo[4,3-b]pyridazin-6-yl)piperidin-4-yl)phenoxy)acetamido)methyl)tetrahydrofuran-2-yl)acetamido)-3,3-dimethylbutanoyl)-4-hydroxy-N-(4-(4-methylthiazol-5-yl)benzyl)pyrrolidine-2-carboxamide]: the “Degradation ability for full-length androgen receptor (residual rate %)” value (“Degradation ability … (residual rate %)” below) in data set [1] (setting [2]), in data set [1] (setting [3]) and in data set [1] (setting [4]) was “− (>80%; −)” throughout. Further, the “Cytotoxicity, CWR22RV1 cells (cell viability %)” value in the data set with CWR22RV1 cells is on record as “− (<80% : −)”.
For `Cc1ncsc1-c1ccc(CNC(=O)[C@@H]2C[C@H](O)CN2C(=O)[C@@H](NC(=O)COCCCCOc2ccc(C3CCN(C4=Nn5c(nnc5-c5ccc(C(F)(F)F)cc5)CC4)CC3)cc2)C(C)(C)C)cc1` [Compound 8, (2S,4S)-1-((S)-3,3-dimethyl-2-(2-(4-(4-(1-(3-(4-(trifluoromethyl)phenyl)-7,8-dihydro-[1,2,4]triazolo[4,3-b]pyridazin-6-yl)piperidin-4-yl)phenoxy)butoxy)acetamido)butanoyl)-4-hydroxy-N-(4-(4-methylthiazol-5-yl)benzyl)pyrrolidine-2-carboxamide], the figures for the “Degradation ability … (residual rate %)” value in data set [1] (setting [2]), in data set [1] (setting [3]) and in data set [1] (setting [4]) were “− (>80%; −)”, “+ (60-80%: +)” and “+++ (<40%: +++)”, respectively. The “Cytotoxicity, CWR22RV1 cells (cell viability %)” value with CWR22RV1 cells is recorded as “+++ (<40% : +++)”.
On to `Cc1ncsc1-c1ccc(CNC(=O)[C@@H]2C[C@H](O)CN2C(=O)[C@@H](NC(=O)CCCN2CCC(C#Cc3ccc(C4CCN(C5=Nn6c(nnc6C(F)(F)F)CC5)CC4)cc3)CC2)C(C)(C)C)cc1` [Compound 13, (2S,4S)-1-((S)-3,3-dimethyl-2-(4-(4-((4-(1-(3-(trifluoromethyl)-7,8-dihydro-[1,2,4]triazolo[4,3-b]pyridazin-6-yl)piperidin-4-yl)phenyl)ethynyl)piperidin-1-yl)butanamido)butanoyl)-4-hydroxy-N-(4-(4-methylthiazol-5-yl)benzyl)pyrrolidine-2-carboxamide], for which the “Cytotoxicity, VCaP cells (cell viability %)” value in the data set with VCaP cells is reported as “+++ (<40% : +++)”. Besides, in the data set with CWR22RV1 cells, the “Cytotoxicity, CWR22RV1 cells (cell viability %)” value is given as “+++ (<40% : +++)”.
On to `Cc1ncsc1-c1ccc(CNC(=O)[C@@H]2C[C@H](O)CN2C(=O)[C@@H](NC(=O)COCCCOc2ccc(C3CCN(C4=Nn5c(nnc5C(F)(F)F)CC4)CC3)cc2)C(C)(C)C)cc1` [Compound 20, (2S,4S)-1-((S)-3,3-dimethyl-2-(2-(3-(4-(1-(3-(trifluoromethyl)-7,8-dihydro-[1,2,4]triazolo[4,3-b]pyridazin-6-yl)piperidin-4-yl)phenoxy)propoxy)acetamido)butanoyl)-4-hydroxy-N-(4-(4-methylthiazol-5-yl)benzyl)pyrrolidine-2-carboxamide], for which the “Cytotoxicity, VCaP cells (cell viability %)” value in the data set with VCaP cells is “++ (40-60% : ++)”. Besides, in the data set on CWR22RV1 cells, the “Cytotoxicity, CWR22RV1 cells (cell viability %)” value is reported as “+++ (<40% : +++)”.
With `Cc1ncsc1-c1ccc(CNC(=O)C2CC(O)CN2C(=O)C(NC(=O)CC2O[C@H](COc3ccc(C4CCN(C5=Nn6c(nnc6C(F)(F)F)CC5)CC4)cc3)[C@@H](O)[C@H]2O)C(C)(C)C)cc1` (stereo partly drawn) [Compound 29, 1-(2-(2-((3R,4S,5R)-3,4-dihydroxy-5-((4-(1-(3-(trifluoromethyl)-7,8-dihydro-[1,2,4]triazolo[4,3-b]pyridazin-6-yl)piperidin-4-yl)phenoxy)methyl)tetrahydrofuran-2-yl)acetamido)-3,3-dimethylbutanoyl)-4-hydroxy-N-(4-(4-methylthiazol-5-yl)benzyl)pyrrolidine-2-carboxamide], the “Degradation ability … (residual rate %)” value in data set [1] (setting [2]) is “+ (60-80%: +)”; in data set [1] (setting [3]), “− (>80%; −)”; in data set [1] (setting [4]), “− (>80%; −)”. Also, in the data set on CWR22RV1 cells, the “Cytotoxicity, CWR22RV1 cells (cell viability %)” value is given as “− (<80% : −)”.
